Test results taken from patent US8796466B2, “Hepatitis C virus inhibitors” (Bristol-Myers Squibb Company, priority 2009, dated 2014).
Read-outs that look alike come from different tables or passages of the source.

Tested on: HCV 1b genotype
Test: HCV Replicon assay (HCV 1b genotype)
Format: cell-based, Hepatitis C virus
Settings: Hepatitis C virus, HCV 1b genotype replicon
Description: An HCV Replicon assay was utilized in the present disclosure, and was prepared, conducted and validated as described in commonly owned PCT/US2006/022197 and in O'Boyle et. al. Antimicrob Agents Chemother. 2005 April; 49(4):1346-53. Assay methods incorporating luciferase reporters have also been used as described (Apath.com).
HCV-neo replicon cells and replicon cells containing mutations in the NS5A region were used to test the currently described family of compounds. The compounds were determined to have more than 10-fold less inhibitory activity on cells containing mutations than wild-type cells. Thus, the compounds of the present disclosure can be effective in inhibiting the function of the HCV NS5A protein and are understood to be as effective in combinations as previously described in application PCT/US2006/022197 and commonly owned WO/04014852. Further, the compounds of the present disclosure can be effective against the HCV 1b genotype. It should also be understood that the compounds of the present disclosure can inhibit multiple genotypes of HCV. […] In one embodiment, compounds of the present disclosure are inhibitory versus 1a, 1b, 2a, 2b, 3a, 4a, and 5a genotypes.

[1] = class symbol, read-out: Range (EC50 values against HCV 1b)
[2] = Effective 50% inhibitory concentration, read-out: 1b EC50

Row | Compound | EC50 [1] | EC50 [2]
1 | COC(=O)N[C@H](C(=O)N1CCC[C@H]1c1nc(-c2cccc(C#Cc3cccc(-c4c[nH]c([C@@H]5CCCN5C(=O)[C@@H](NC(=O)OC)C(C)C)n4)c3)c2)c[nH]1)C(C)C [Example J1, methyl ((1S)-1-(((2S)-2-(4-(3-((3-(2-((2S)-1-((2S)-2-((methoxycarbonyl)amino)-3-methylbutanoyl)-2-pyrrolidinyl)-1H-imidazol-4-yl)phenyl)ethynyl)phenyl)-1H-imidazol-2-yl)-1-pyrrolidinyl)carbonyl)-2-methylpropyl)carbamate] | 2 to 99 pM | –
2 | COC(=O)N[C@H](C(=O)N1CCC[C@H]1c1nc(-c2cccc(C#Cc3cccc(-c4c[nH]c([C@@H]5CCCN5)n4)c3)c2)c[nH]1)C(C)C [Example J1.1, methyl ((1S)-2-methyl-1-(((2S)-2-(4-(3-((3-(2-((2S)-2-pyrrolidinyl)-1H-imidazol-4-yl)phenyl)ethynyl)phenyl)-1H-imidazol-2-yl)-1-pyrrolidinyl)carbonyl)propyl)carbamate] | 10000 to 350000 pM | 339000 pM
3 | COC(=O)N[C@H](C(=O)N1CCC[C@H]1c1ncc(-c2cccc(C#Cc3cccc(-c4cnc([C@@H]5CCCN5C(=O)[C@@H](NC(=O)OC)C5CCOCC5)[nH]4)c3)c2)[nH]1)C1CCOCC1 [Example J2, dimethyl (1,2-ethynediylbis(3,1-phenylene-1H-imidazole-4,2-diyl(2S)-2,1-pyrrolidinediyl((1S)-2-oxo-1-(tetrahydro-2H-pyran-4-yl)-2,1-ethanediyl)))biscarbamate] | 100 to 990 pM | 120 pM
4 | COC(=O)N[C@H](C(=O)N1[C@@H]2C[C@@H]2C[C@H]1c1ncc(-c2cccc(C#Cc3cccc(-c4cnc([C@@H]5C[C@H]6C[C@H]6N5C(=O)[C@@H](NC(=O)OC)C(C)C)[nH]4)c3)c2)[nH]1)C(C)C [Example J3, methyl ((1S)-1-(((1R,3S,5R)-3-(4-(3-((3-(2-((1R,3S,5R)-2-((2S)-2-((methoxycarbonyl)amino)-3-methylbutanoyl)-2-azabicyclo[3.1.0]hex-3-yl)-1H-imidazol-4-yl)phenyl)ethynyl)phenyl)-1H-imidazol-2-yl)-2-azabicyclo[3.1.0]hex-2-yl)carbonyl)-2-methylpropyl)carbamate] | 2 to 99 pM | –
5 | COC(=O)N[C@H](C(=O)N1[C@@H]2C[C@@H]2C[C@H]1c1ncc(-c2cccc(C#Cc3cccc(-c4cnc([C@@H]5C[C@H]6C[C@H]6N5C(=O)[C@@H](NC(=O)OC)C5CCOCC5)[nH]4)c3)c2)[nH]1)C1CCOCC1 [Example J4, dimethyl (1,2-ethynediylbis(3,1-phenylene-1H-imidazole-4,2-diyl(1R,3S,5R)-2-azabicyclo[3.1.0]hexane-3,2-diyl((1S)-2-oxo-1-(tetrahydro-2H-pyran-4-yl)-2,1-ethanediyl)))biscarbamate] | 2 to 99 pM | –
6 | COC(=O)N[C@H](C(=O)N1CCC[C@H]1c1nc(-c2ccc(C#Cc3ccc(-c4ccc(-c5c[nH]c([C@@H]6CCCN6C(=O)[C@@H](NC(=O)OC)C(C)C)n5)cc4)cc3)cc2)c[nH]1)C(C)C [Example J5, methyl ((1S)-1-(((2S)-2-(4-(4′-((4-(2-((2S)-1-((2S)-2-((methoxycarbonyl)amino)-3-methylbutanoyl)-2-pyrrolidinyl)-1H-imidazol-4-yl)phenyl)ethynyl)-4-biphenylyl)-1H-imidazol-2-yl)-1-pyrrolidinyl)carbonyl)-2-methylpropyl)carbamate] | 2 to 99 pM | –
7 | COC(=O)N[C@H](C(=O)N1CCC[C@H]1c1nc(-c2ccc(C#Cc3ccc(-c4c[nH]c([C@@H]5CCCN5C(=O)[C@@H](NC(=O)OC)C(C)C)n4)cc3)cc2)c[nH]1)C(C)C [Example M1, methyl ((1S)-1-(((2S)-2-(4-(4-((4-(2-((2S)-1-((2S)-2-((methoxycarbonyl)amino)-3-methylbutanoyl)-2-pyrrolidinyl)-1H-imidazol-4-yl)phenyl)ethynyl)phenyl)-1H-imidazol-2-yl)-1-prrolidinyl)carbonyl)-2-methylpropyl)carbamate] | 2 to 99 pM | –
8 | COC(=O)N[C@@H](C(=O)N1CCC[C@H]1c1nc(-c2ccc(C#Cc3ccc(-c4c[nH]c([C@@H]5CCCN5C(=O)[C@H](NC(=O)OC)c5ccccc5)n4)cc3)cc2)c[nH]1)c1ccccc1 [Example M2, dimethyl (1,2-ethynediylbis(4,1-phenylene-1H-imidazole-4,2-diyl(2S)-2,1-pyrrolidinediyl((1R)-2-oxo-1-phenyl-2,1-ethanediyl)))biscarbamate] | 100 to 990 pM | 240 pM
9 | COC(=O)N[C@H](C(=O)N1CCC[C@H]1c1nc(-c2ccc(C#Cc3ccc(-c4c[nH]c([C@@H]5CCCN5C(=O)[C@@H](NC(=O)OC)C5CCOCC5)n4)cc3)cc2)c[nH]1)C1CCOCC1 [Example M2.1, dimethyl (1,2-ethynediylbis(4,1-phenylene-1H-imidazole-4,2-diyl(2S)-2,1-pyrrolidinediyl((1S)-2-oxo-1-(tetrahydro-2H-pyran-4-yl)-2,1-ethanediyl)))biscarbamate] | 2 to 99 pM | –
10 | COC(=O)N[C@H](C(=O)N1[C@@H]2C[C@@H]2C[C@H]1c1nc(-c2ccc(C#Cc3ccc(-c4c[nH]c([C@@H]5C[C@H]6C[C@H]6N5C(=O)[C@@H](NC(=O)OC)C(C)C)n4)cc3)cc2)c[nH]1)C(C)C [Example M3, methyl ((1S)-1-(((1R,3S,5R)-3-(4-(4-((4-(2-((1R,3S,5R)-2-((2S)-2-((methoxycarbonyl)amino)-3-methylbutanoyl)-2-azabicyclo[3.1.0]hex-3-yl)-1H-imidazol-4-yl)phenyl)ethynyl)phenyl)-1H-imidazol-2-yl)-2-azabicyclo[3.1.0]hex-2-yl)carbonyl)-2-methylpropyl)carbamate] | 2 to 99 pM | –
11 | CC[C@H](NC(=O)OC)C(=O)N1[C@@H]2C[C@@H]2C[C@H]1c1nc(-c2ccc(C#Cc3ccc(-c4c[nH]c([C@@H]5C[C@H]6C[C@H]6N5C(=O)[C@H](CC)NC(=O)OC)n4)cc3)cc2)c[nH]1 [Example M4, dimethyl (1,2-ethynediylbis(4,1-phenylene-1H-imidazole-4,2-diyl(1R,3S,5R)-2-azabicyclo[3.1.0]hexane-3,2-diyl((2S)-1-oxo-1,2-butanediyl)))biscarbamate] | 2 to 99 pM | –
12 | COC(=O)N[C@H](C(=O)N1[C@@H]2C[C@@H]2C[C@H]1c1nc(-c2ccc(C#Cc3ccc(-c4c[nH]c([C@@H]5C[C@H]6C[C@H]6N5C(=O)[C@@H](NC(=O)OC)C5CCC5)n4)cc3)cc2)c[nH]1)C1CCC1 [Example M5, dimethyl (1,2-ethynediylbis(4,1-phenylene-1H-imidazole-4,2-diyl(1R,3S,5R)-2-azabicyclo[3.1.0]hexane-3,2-diyl((1S)-1-cyclobutyl-2-oxo-2,1-ethanediyl)))biscarbamate] | 100 to 990 pM | –
13 | COC(=O)N[C@H](C(=O)N1[C@@H]2C[C@@H]2C[C@H]1c1nc(-c2ccc(C#Cc3ccc(-c4c[nH]c([C@@H]5C[C@H]6C[C@H]6N5C(=O)[C@@H](NC(=O)OC)C5CCOCC5)n4)cc3)cc2)c[nH]1)C1CCOCC1 [Example M6, dimethyl (1,2-ethynediylbis(4,1-phenylene-1H-imidazole-4,2-diyl(1R,3S,5R)-2-azabicyclo[3.1.0]hexane-3,2-diyl((1S)-2-oxo-1-(tetrahydro-2H-pyran-4-yl)-2,1-ethanediyl)))biscarbamate] | 2 to 99 pM | 3.3 pM
14 | COC(=O)N[C@H](C(=O)N1[C@@H]2C[C@@H]2C[C@H]1c1nc(-c2ccc(C#Cc3ccc(-c4c[nH]c([C@@H]5C[C@H]6C[C@H]6N5C(=O)[C@@H](NC(=O)OC)C5CCOCC5)n4)cc3)cc2)c[nH]1)C(C)C [Example M7, methyl ((1S)-1-(((1R,3S,5R)-3-(4-(4-((4-(2-((1R,3S,5R)-2-((2S)-2-((methoxycarbonyl)amino)-2-(tetrahydro-2H-pyran-4-yl)acetyl)-2-azabicyclo[3.1.0]hex-3-yl)-1H-imidazol-4-yl)phenyl)ethynyl)phenyl)-1H-imidazol-2-yl)-2-azabicyclo[3.1.0]hex-2-yl)carbonyl)-2-methylpropyl)carbamate] | 2 to 99 pM | –
15 | COC(=O)N[C@H](C(=O)N1[C@@H]2C[C@@H]2C[C@H]1c1nc(-c2ccc(C#Cc3ccc(-c4[nH]c([C@@H]5C[C@H]6C[C@H]6N5C(=O)[C@@H](NC(=O)OC)C(C)C)nc4Cl)cc3)cc2)c[nH]1)C(C)C [Example M8, methyl ((1S)-1-(((1R,3S,5R)-3-(4-chloro-5-(4-((4-(2-((1R,3S,5R)-2-((2S)-2-((methoxycarbonyl)amino)-3-methylbutanoyl)-2-azabicyclo[3.1.0]hex-3-yl)-1H-imidazol-4-yl)phenyl)ethynyl)phenyl)-1H-imidazol-2-yl)-2-azabicyclo[3.1.0]hex-2-yl)carbonyl)-2-methylpropyl)carbamate] | 2 to 99 pM | –
16 | COC(=O)N[C@H](C(=O)N1[C@@H]2C[C@@H]2C[C@H]1c1nc(Cl)c(-c2ccc(C#Cc3ccc(-c4[nH]c([C@@H]5C[C@H]6C[C@H]6N5C(=O)[C@@H](NC(=O)OC)C(C)C)nc4Cl)cc3)cc2)[nH]1)C(C)C [Example M9, methyl ((1S)-1-(((1R,3S,5R)-3-(4-chloro-5-(4-((4-(4-chloro-2-((1R,3S,5R)-2-((2S)-2-((methoxycarbonyl)amino)-3-methylbutanoyl)-2-azabicyclo[3.1.0]hex-3-yl)-1H-imidazol-5-yl)phenyl)ethynyl)phenyl)-1H-imidazol-2-yl)-2-azabicyclo[3.1.0]hex-2-yl)carbonyl)-2-methylpropyl)carbamate] | 2 to 99 pM | –
